Reference: ChEMBL document CHEMBL1158611, “Trichoderins, novel aminolipopeptides from a marine sponge-derived Trichoderma sp., are active against dormant mycobacteria” (2010)
≈ marks a conversion by molar mass, not a printed value. *1 amine or outer side, *2 acyl side, *3 side chain or, on linkers, in order; H or OH if unused. Where a SMILES comes first, the peptide text is derived from it. [ ]: non-standard residue; d: D form. The star is where a group is joined. X2 = CCC(=O)C[C@@H](O)C[C@@H](C)C[C@H](N[*:1])C(=O)[*:2]; X1 = CCC(=O)/C=C/C[C@@H](C)C[C@H](N[*:1])C(=O)[*:2]; Alaψ(CH2NMeCH2CH2OH) = C[C@@H](CN(C)CCO)N*; Decanoyl(2R-Me) = CCCCCCCC[C@@H](C)C(=O)*; Aib = CC(C)(N)C(=O)O

What was measured:
Format in all cases: functional
[1] = test system: Mycobacterium tuberculosis; assay: Antimycobacterial activity against Mycobacterium tuberculosis H37Rv under aerobic condition
[2] = test system: Mycolicibacterium smegmatis; assay: Antimycobacterial activity against Mycobacterium smegmatis under dormancy-inducing hypoxic condition
[3] = test system: Mycolicibacterium smegmatis; assay: Antimycobacterial activity against Mycobacterium smegmatis under aerobic condition
[4] = test system: Mycobacterium tuberculosis; assay: Antimycobacterial activity against Mycobacterium tuberculosis H37Rv under dormancy-inducing hypoxic condition

Work on `CCCCCCCC[C@@H](C)C(=O)N1CCC[C@H]1C(=O)N[C@@H](C[C@H](C)C[C@H](O)CC(=O)CC)C(=O)NC(C)(C)C(=O)NC(C)(C)C(=O)N[C@H](C(=O)N[C@H](C(=O)NC(C)(C)C(=O)NC(C)(C)C(=O)N[C@@H](C)CN(C)CCO)C(C)C)[C@@H](C)CC` [TRICHODERIN A] ({Decanoyl(2R-Me)}-P[X2][Aib][Aib]IV[Aib][Aib]-{Alaψ(CH2NMeCH2CH2OH)}) yielded an MIC [1] of 0.12 µg/mL (≈ 0.103 µM), an MIC [2] of 0.1 µg/mL (≈ 0.0859 µM) and an MIC [3] of 0.1 µg/mL (≈ 0.0859 µM). For the same compound, the MIC [4] was 0.12 µg/mL (≈ 0.103 µM).
Compound `NNC(=O)c1ccncc1` [ISONIAZID] has an MIC [1] of 0.05 µg/mL (≈ 0.365 µM), an MIC [2] of 25 µg/mL (≈ 182 µM) and an MIC [3] of 2.5 µg/mL (≈ 18.2 µM). For the same compound, the MIC [4] was > 100 µg/mL.
For `CCCCCCCC[C@@H](C)C(=O)N1CCC[C@H]1C(=O)N[C@@H](C[C@H](C)C[C@H](O)CC(=O)CC)C(=O)NC(C)(C)C(=O)NC(C)(C)C(=O)N[C@H](C(=O)N[C@H](C(=O)NC(C)(C)C(=O)NC(C)(C)C(=O)N[C@@H](C)CN(C)CCO)C(C)C)C(C)C` [TRICHODERIN B] ({Decanoyl(2R-Me)}-P[X2][Aib][Aib]VV[Aib][Aib]-{Alaψ(CH2NMeCH2CH2OH)}), the MIC [1] was 0.13 µg/mL (≈ 0.113 µM), the MIC [2] was 0.63 µg/mL (≈ 0.548 µM) and the MIC [3] was 0.63 µg/mL (≈ 0.548 µM). It also gave an MIC [4] of 0.13 µg/mL (≈ 0.113 µM).
`CCCCCCCC[C@@H](C)C(=O)N1CCC[C@H]1C(=O)N[C@@H](C[C@H](C)C/C=C/C(=O)CC)C(=O)NC(C)(C)C(=O)NC(C)(C)C(=O)N[C@H](C(=O)N[C@H](C(=O)NC(C)(C)C(=O)NC(C)(C)C(=O)N[C@@H](C)CN(C)CCO)C(C)C)[C@@H](C)CC` [TRICHODERIN A1] ({Decanoyl(2R-Me)}-P[X1][Aib][Aib]IV[Aib][Aib]-{Alaψ(CH2NMeCH2CH2OH)}) showed an MIC [1] of 2 µg/mL (≈ 1.75 µM), an MIC [2] of 1.56 µg/mL (≈ 1.36 µM) and an MIC [3] of 1.56 µg/mL (≈ 1.36 µM). The MIC [4] was 2 µg/mL (≈ 1.75 µM).
